Read-outs that look alike come from different tables or passages of the source. Numbered stars: 1 amine (or outer) side, 2 acyl side, 3 side chain; on linkers, the order of the positions; unused ones are H or OH. Square brackets hold non-standard residues; d marks the D form. Side chains are listed from the residue outwards. Peptide text beside a SMILES is read from it. * marks the point of attachment. γGlu = O=C(O)[C@H](CCC(=O)[*:2])N[*:1]; Stearoyl = CCCCCCCCCCCCCCCCCC(=O)*; AEEA = NCCOCCOCC(=O)O; Aib = CC(C)(N)C(=O)O
Tests used:
Format in all cases: cell-based
human GLP-1 R = biological target: T1, human GLP-1 R (Homo sapiens, UniProt P43220); test: cAMP induction in HEK293 cells expressing human GLP-1 R (AlphaScreen cAMP kit)
T1 construct: expressed in transfected cells
T1 sequence (P43220 24-463): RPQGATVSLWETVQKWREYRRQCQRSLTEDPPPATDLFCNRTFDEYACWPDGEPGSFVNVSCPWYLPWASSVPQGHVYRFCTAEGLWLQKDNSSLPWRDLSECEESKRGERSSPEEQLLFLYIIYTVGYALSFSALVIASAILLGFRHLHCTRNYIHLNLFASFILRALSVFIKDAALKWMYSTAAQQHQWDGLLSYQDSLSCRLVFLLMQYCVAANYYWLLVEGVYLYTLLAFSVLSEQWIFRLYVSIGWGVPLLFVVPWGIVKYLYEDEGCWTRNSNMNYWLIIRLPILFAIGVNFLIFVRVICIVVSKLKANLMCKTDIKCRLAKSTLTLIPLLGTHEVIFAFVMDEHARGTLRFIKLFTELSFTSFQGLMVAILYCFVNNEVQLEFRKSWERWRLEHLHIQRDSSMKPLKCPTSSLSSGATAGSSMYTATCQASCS
Description: (§1) Briefly, HEK293 cells expressing the human GIP R, GLP-1 R or GCG R (stable cell lines generated through transfection of the cDNA for human GIP R, GLP-1 R or GCG R and selection of stable clones) were seeded at 30,000 cells/well in 96-well microtiter plates coated with 0.01% poly-L-lysine, and grown for 1 day in culture in 200 μl growth medium (DMEM, 10% FCS, Penicillin (100 IU/ml), Streptomycin (100 μg/ml)). On the day of analysis, growth medium was removed and the cells were washed once with 150 μl Tyrode's buffer (Tyrode's Salts (9.6 g/l), 10 mM HEPES, pH 7.4). […] The Assay buffer was removed and cells are lysed in 80 μl Lysis buffer (0.1% w/v BSA, 5 mM HEPES, 0.3% v/v Tween-20) per well. From each well 10 μl of lysed cells were transferred to a 384-well plate and mixed with 15 μl bead-mix (1 Unit/15 μl anti-cAMP Acceptor Beads, 1 Unit/15 μl Donor Beads, and 1 Unit/15 μl Biotinylated cAMP in Assay Buffer). The plates were mixed and incubated in the dark for an hour at room temperature before measuring using an Envision™ plate reader (Perkin-Elmer).
(§2) The resulting cAMP curves were plotted as absolute cAMP concentrations (nM) over log (test compound concentration) and analyzed using the curve fitting program XLfit.
(§3) Parameters calculated to describe both the potency as well as the agonistic activity of each test compound on the receptors were:
(§4) EC50, a concentration resulting in a half-maximal elevation of cAMP levels, reflecting the potency of the test compound.

human GCG R = biological target: T2, human GCG R (Homo sapiens, UniProt P47871); test: cAMP induction in HEK293 cells expressing human GCG R (AlphaScreen cAMP kit)
T2 construct: expressed in transfected cells
T2 sequence (P47871 26-477): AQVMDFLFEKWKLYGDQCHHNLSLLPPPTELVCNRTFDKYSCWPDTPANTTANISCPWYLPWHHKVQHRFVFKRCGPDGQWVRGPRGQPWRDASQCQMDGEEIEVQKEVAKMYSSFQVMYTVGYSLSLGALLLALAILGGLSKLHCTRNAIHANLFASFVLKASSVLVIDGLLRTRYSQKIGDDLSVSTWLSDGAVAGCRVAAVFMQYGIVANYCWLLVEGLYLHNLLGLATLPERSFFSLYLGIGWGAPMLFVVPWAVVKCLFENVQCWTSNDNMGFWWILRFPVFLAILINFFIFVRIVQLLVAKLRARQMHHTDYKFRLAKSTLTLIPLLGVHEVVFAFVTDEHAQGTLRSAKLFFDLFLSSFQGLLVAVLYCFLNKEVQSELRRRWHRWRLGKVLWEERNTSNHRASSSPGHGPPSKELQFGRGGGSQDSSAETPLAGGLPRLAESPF

human GIP R = biological target: T3, human GIP R (Homo sapiens, UniProt P48546); test: cAMP induction in HEK293 cells expressing human GIP R (AlphaScreen cAMP kit)
T3 construct: expressed in transfected cells
T3 sequence (P48546 22-466): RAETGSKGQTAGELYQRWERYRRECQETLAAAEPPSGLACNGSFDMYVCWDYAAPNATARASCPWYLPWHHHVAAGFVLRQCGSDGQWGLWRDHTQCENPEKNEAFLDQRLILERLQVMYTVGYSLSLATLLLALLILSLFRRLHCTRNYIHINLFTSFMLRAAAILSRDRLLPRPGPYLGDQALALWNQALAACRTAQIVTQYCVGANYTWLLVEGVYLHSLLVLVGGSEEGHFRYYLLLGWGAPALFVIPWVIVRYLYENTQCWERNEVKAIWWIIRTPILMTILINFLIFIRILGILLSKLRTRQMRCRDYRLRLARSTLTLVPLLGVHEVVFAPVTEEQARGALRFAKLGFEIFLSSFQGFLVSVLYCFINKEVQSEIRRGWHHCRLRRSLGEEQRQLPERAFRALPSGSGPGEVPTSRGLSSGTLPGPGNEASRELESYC
Description: as §1, §2, §3, §4

[1] = Table 2, average EC50, cAMP, HEK293 cells expressing human GLP-1 R, read-out: GLP1 R (EC50 in nM)
[2] = Table 2, average EC50, cAMP, HEK293 cells expressing human GCG R, read-out: GCG R (EC50 in nM)
[3] = Table 2, average EC50, cAMP, read-out: GIP R (EC50 in nM)
[4] = Table 2b (most comprehensive data), average EC50, cAMP, HEK293 cells expressing human GLP-1 R, read-out: GLP1 R (EC50 in nM)
[5] = Table 2b (most comprehensive data), average EC50, cAMP, HEK293 cells expressing human GCG R, read-out: GCG R (EC50 in nM)
[6] = Table 2b (most comprehensive data), average EC50, cAMP, read-out: GIP R (EC50 in nM)

Structure (SMILES)	EC50 (human GLP-1 R; [1])	EC50 (human GCG R; [2])	EC50 (human GIP R; [3])	EC50 (human GLP-1 R; [4])	EC50 (human GCG R; [5])	EC50 (human GIP R; [6])	EC50 (human GLP-1 R)	EC50 (human GCG R)	EC50 (human GIP R; GIP R (EC50 in nM), Table 2, average EC50, cAMP)	EC50 (human GIP R; GIP R (EC50 in nM), Table 2b (most comprehensive data), average EC50, cAMP)
CCCCCCCCCCCCCCCC(=O)N[C@@H](CCC(=O)NCCCC[C@H](NC(=O)[C@H](CCCCN)NC(=O)[C@H](CCC(=O)O)NC(=O)[C@H](CC(C)C)NC(=O)[C@H](Cc1ccc(O)cc1)NC(=O)[C@@H](NC(=O)[C@H](CO)NC(=O)[C@H](Cc1ccc(O)cc1)NC(=O)[C@H](CC(=O)O)NC(=O)[C@H](CO)NC(=O)[C@@H](NC(=O)[C@H](Cc1ccccc1)NC(=O)[C@@H](NC(=O)CNC(=O)[C@H](CCC(N)=O)NC(=O)C(C)(C)NC(=O)[C@@H](N)Cc1ccc(O)cc1)[C@@H](C)O)[C@@H](C)O)[C@@H](C)CC)C(=O)N[C@@H](C)C(=O)N[C@@H](C)C(=O)N[C@@H](CCCCN)C(=O)N[C@@H](CCC(=O)O)C(=O)N[C@@H](Cc1ccccc1)C(=O)N[C@H](C(=O)N[C@@H](CCC(=O)O)C(=O)N[C@@H](Cc1c[nH]c2ccccc12)C(=O)N[C@@H](CC(C)C)C(=O)N[C@@H](CC(C)C)C(=O)N[C@@H](CO)C(=O)N[C@@H](C)C(N)=O)C(C)C)C(=O)O [Compound 23] (HELM PEPTIDE1{Y.[Aib].Q.G.T.F.T.S.D.Y.S.I.Y.L.E.K.K.A.A.K.E.F.V.E.W.L.L.S.A.[am]}|PEPTIDE2{[CCCCCCCCCCCCCCCC(=O)[*:2]].[gGlu]}$PEPTIDE1,PEPTIDE2,17:R3-2:R2$$$V2.0)	0.11 nM	0.14 nM	0.13 nM							
CCCCCCCCCCCCCCCCCC(=O)N[C@@H](CCC(=O)NCCOCCOCC(=O)NCCOCCOCC(=O)NCCCC[C@H](NC(=O)[C@H](CCCCN)NC(=O)[C@H](CCC(=O)O)NC(=O)[C@H](CC(C)C)NC(=O)[C@H](C)NC(=O)[C@@H](NC(=O)[C@H](CO)NC(=O)[C@H](CC(C)C)NC(=O)[C@H](CC(=O)O)NC(=O)[C@H](CO)NC(=O)[C@@H](NC(=O)[C@H](Cc1ccccc1)NC(=O)[C@@H](NC(=O)CNC(=O)[C@H](CCC(N)=O)NC(=O)C(C)(C)NC(=O)[C@@H](N)Cc1ccc(O)cc1)[C@@H](C)O)[C@@H](C)O)[C@@H](C)CC)C(=O)N[C@@H](C)C(=O)N[C@@H](CCC(N)=O)C(=O)N[C@@H](CCCNC(=N)N)C(=O)N[C@@H](C)C(=O)N[C@@H](Cc1ccccc1)C(=O)N[C@H](C(=O)N[C@@H](CCC(=O)O)C(=O)N[C@@H](Cc1c[nH]c2ccccc12)C(=O)N[C@@H](CC(C)C)C(=O)N[C@@H](CC(C)C)C(=O)N[C@@H](C)C(=O)N[C@@H](CCC(N)=O)C(=O)N[C@@H](CCCCN)C(N)=O)C(C)C)C(=O)O [Compound 48] (H-Y[Aib]QGTFTSDLSIALEKK([AEEA-AEEA-γGlu-Stearoyl])AQRAFVEWLLAQK-NH2)				0.013 nM	0.19 nM	0.013 nM				
CCCCCCCCCCCCCCCC(=O)N[C@@H](CCC(=O)NCCCC[C@H](NC(=O)[C@H](CO)NC(=O)[C@H](CC(=O)O)NC(=O)[C@H](CC(C)C)NC(=O)[C@H](Cc1ccc(O)cc1)NC(=O)[C@@H](NC(=O)[C@H](CO)NC(=O)[C@H](Cc1ccc(O)cc1)NC(=O)[C@H](CC(=O)O)NC(=O)[C@H](CO)NC(=O)[C@@H](NC(=O)[C@H](Cc1ccccc1)NC(=O)[C@@H](NC(=O)CNC(=O)[C@H](CCC(N)=O)NC(=O)C(C)(C)NC(=O)[C@@H](N)Cc1ccc(O)cc1)[C@@H](C)O)[C@@H](C)O)[C@@H](C)CC)C(=O)N[C@@H](C)C(=O)N[C@@H](C)C(=O)N[C@@H](Cc1c[nH]cn1)C(=O)N[C@@H](CC(=O)O)C(=O)N[C@@H](Cc1ccccc1)C(=O)N[C@H](C(=O)N[C@@H](CCC(=O)O)C(=O)N[C@@H](Cc1c[nH]c2ccccc12)C(=O)N[C@@H](CC(C)C)C(=O)N[C@@H](CC(C)C)C(=O)N[C@@H](CO)C(=O)N[C@@H](C)C(=O)NCC(=O)N1CCC[C@H]1C(=O)N[C@@H](CO)C(=O)N[C@@H](CO)C(=O)NCC(=O)N[C@@H](C)C(=O)N1CCC[C@H]1C(=O)N1CCC[C@H]1C(=O)N1CCC[C@H]1C(=O)N[C@@H](CO)C(N)=O)C(C)C)C(=O)O [Compound 29] (HELM PEPTIDE1{Y.[Aib].Q.G.T.F.T.S.D.Y.S.I.Y.L.D.S.K.A.A.H.D.F.V.E.W.L.L.S.A.G.P.S.S.G.A.P.P.P.S.[am]}|PEPTIDE2{[CCCCCCCCCCCCCCCC(=O)[*:2]].[gGlu]}$PEPTIDE1,PEPTIDE2,17:R3-2:R2$$$V2.0)		0.15 nM	0.06 nM	0.15 nM		0.05 nM	0.05 nM			
CC(C)C[C@H](NC(=O)[C@H](CC(C)C)NC(=O)[C@H](Cc1c[nH]c2ccccc12)NC(=O)[C@H](CCC(=O)O)NC(=O)[C@@H](NC(=O)[C@H](Cc1ccccc1)NC(=O)[C@H](CC(=O)O)NC(=O)[C@H](Cc1c[nH]cn1)NC(=O)[C@H](C)NC(=O)[C@H](C)NC(=O)[C@H](CCCCN)NC(=O)[C@H](CO)NC(=O)[C@H](CC(=O)O)NC(=O)[C@H](CC(C)C)NC(=O)[C@H](Cc1ccc(O)cc1)NC(=O)[C@H](CCCCN)NC(=O)[C@H](CO)NC(=O)[C@H](Cc1ccc(O)cc1)NC(=O)[C@H](CC(=O)O)NC(=O)[C@H](CO)NC(=O)[C@@H](NC(=O)[C@H](Cc1ccccc1)NC(=O)[C@@H](NC(=O)CNC(=O)[C@H](CCC(N)=O)NC(=O)C(C)(C)NC(=O)[C@@H](N)Cc1ccc(O)cc1)[C@@H](C)O)[C@@H](C)O)C(C)C)C(=O)N[C@@H](CCCNC(=N)N)C(=O)N[C@@H](C)C(N)=O [Compound 3] (HELM PEPTIDE1{Y.[Aib].Q.G.T.F.T.S.D.Y.S.K.Y.L.D.S.K.A.A.H.D.F.V.E.W.L.L.R.A.[am]}$$$$V2.0)	0.015 nM			0.022 nM				0.022 nM	0.13 nM	0.015 nM
CCCCCCCCCCCCCCCCCC(=O)N[C@@H](CCC(=O)NCCOCCOCC(=O)NCCOCCOCC(=O)NCCCC[C@H](NC(=O)[C@H](CCCCN)NC(=O)[C@H](CC(=O)O)NC(=O)[C@H](CC(C)C)NC(=O)[C@H](Cc1ccc(O)cc1)NC(=O)[C@@H](NC(=O)[C@H](CO)NC(=O)[C@H](Cc1ccc(O)cc1)NC(=O)[C@H](CC(=O)O)NC(=O)[C@H](CO)NC(=O)[C@@H](NC(=O)[C@H](Cc1ccccc1)NC(=O)[C@@H](NC(=O)CNC(=O)[C@H](CCC(N)=O)NC(=O)C(C)(C)NC(=O)[C@@H](N)Cc1ccc(O)cc1)[C@@H](C)O)[C@@H](C)O)[C@@H](C)CC)C(=O)N[C@@H](C)C(=O)N[C@@H](CCC(N)=O)C(=O)N[C@@H](CCCNC(=N)N)C(=O)N[C@@H](C)C(=O)N[C@@H](Cc1ccccc1)C(=O)N[C@H](C(=O)N[C@@H](CCC(=O)O)C(=O)N[C@@H](Cc1c[nH]c2ccccc12)C(=O)N[C@@H](CC(C)C)C(=O)N[C@@H](CC(C)C)C(=O)N[C@@H](C)C(=O)N[C@@H](CCC(N)=O)C(=O)NCC(=O)N1CCC[C@H]1C(=O)N[C@@H](CO)C(=O)N[C@@H](CO)C(=O)NCC(=O)N[C@@H](C)C(=O)N1CCC[C@H]1C(=O)N1CCC[C@H]1C(=O)N1CCC[C@H]1C(=O)N[C@@H](CO)C(N)=O)C(C)C)C(=O)O [Compound 35] (H-Y[Aib]QGTFTSDYSIYLDKK([AEEA-AEEA-γGlu-Stearoyl])AQRAFVEWLLAQGPSSGAPPPS-NH2)				1.85 nM	0.011 nM	0.012 nM				

From patent publication US10131702B2, “Glucagon-GLP-1-GIP triple agonist compounds” (priority 2013, dated 2018)
